{
  "source": "patent US11311646B2",
  "about": "“Therapeutic material” (ASTON UNIVERSITY, priority 2016, dated 2022)",
  "key": {"[1]": {"test_system": "Human osteosarcoma (Saos-2) cells", "assay": "MTT viability assay, Saos-2", "format": "cell-based", "conditions": "10 nm etoposide, 72 hours", "description": "Human osteosarcoma (Saos-2) cells were purchased from the American Tissue Culture Collection and maintained in McCoy's 5A medium containing 1.5 mM L-glutamine and 2200 mg/L sodium bicarbonate. Media was supplemented with 1% penicillin, streptomycin and 15% foetal bovine serum (FBS).\n(§1) Stock solutions of conditioned media were prepared by dissolving glass particles (from Example 1-3) in complete McCoy's 5A medium to treat Saos-2 cells and Clonetics OGM Osteoblast complete growth media to treat osteoblasts.\n(§2) Stock solutions were prepared at a concentration of 10 mg/ml and left to incubate in a shaker incubator at 250 rpm at 37° C. for 24 hours. Following the 24 hour incubation period, stock solutions were filtered using 0.2 micron syringe filter. 3 ml samples were excluded to record stock solution pH values following glass dissolution.\n(§3) Cell cytotoxicity was analysed using MTT viability assay (Thermo Fisher), where 5000 cells per well of both Saos-2 and NHOst cells were cultured using conditioned media containing 10 mg/ml respective glass compositions (Examples 1-3), for a period of 72 hours. […] Metabolically active cells reduce MTT to formazan and after formazan extraction the optical density was measured using a spectrophotometer (at 570 nm). […]"}, "[2]": {"test_system": "Human osteoblasts (NHOst)", "assay": "MTT viability assay, NHOst", "format": "cell-based", "conditions": "10 nm etoposide, 72 hours", "description": "Human osteoblasts (NHOst) were purchased from Lonza and cultured in Clonetics OGM Osteoblast growth media supplemented with 10% FBS, 1% L-glutamine and 1% penicillin, streptomycin. Both cell lines were maintained at 37° C. in a humidified atmosphere of 5% CO2/95% air.\nas §1, §2, §3"}},
  "data": [
    {"smiles": "COc1cc([C@@H]2c3cc4c(cc3[C@@H](O[C@@H]3O[C@@H]5CO[C@@H](C)O[C@H]5[C@H](O)[C@H]3O)[C@H]3COC(=O)[C@H]23)OCO4)cc(OC)c1O", "note": "[etoposide, Etoposide]", "values": [
      {"measurement": "Saos-2 cell death, positive control", "setting": "[1]", "value": "inducer of cell death (p<0.0001)"},
      {"measurement": "NHOst cell death, positive control", "setting": "[2]", "value": "inducer of cell death (p<0.0001)"}
    ]}
  ]
}
